Source: patent US9593376B2, “Natural killer p30 (NKp30) dysfunction and the biological applications thereof” (INSTITUT GUSTAVE ROUSSY, priority 2008, dated 2017)
Counter-ions that a name gives are not always drawn.

Tests used:
[1] = test system: alternative splicing of NCR3 gene (NKp30 SHORT, INTER, LONG isoforms) in YTS cells; test: Modulation of alternative splicing of NCR3 gene in YTS cells (RT-PCR of NKp30 isoform proportions); assay type: cell-based, human; settings: 100 nM, 45 h at 37° C., FIG. 14A
Method: (§1) FIG. 14. Modulation of alternative splicing of NCR3 gene with histone deacetylase inhibitors and DNA methyltransferase inhibitors (part A of experimental section)
(§2) NKp30 isoform proportions are shown as the ratio of the sum of WT—(variable Ig-like) and DEL—(constant Ig-like) extracellular domain relative quantities of each isoform (SHORT-, INTER- and LONG-tail isoforms) and the total quantity of the six isoforms.
(A) YTS cells were seeded (5.10^5 NK/well) in 96 wells plates and incubated with trichostatine A (100 nM) (TSA) for 45 h at 37° C.
(§3) Total cellular RNA was isolated from PBMC and NK cell lines with the RNeasy kit (Qiagen). First strand cDNA was synthesized from 5 μg of total RNA using SuperScript™ II Reverse Transcriptase and random primers (Promega) according to Invitrogen's instructions.
(§4) Modulation of NCR3 Alternative Splicing by HDAC and Demethylating Agents.
YTS cells were seeded (5.10^5 NK/well) in 96 wells plates and incubated with trichostatine A (100 nM) for 45 h at 37° C.
(§5) Several approaches modulating alternative splicing may be used to operate a switch from NKp30 INTER^Low/SHORT^High/LONG^High (identified as profile B following the first results obtained in the present study (part A.)) towards NKp30 INTER^High/SHORT^Low/LONG^Low (identified as profile A following the first results obtained in the present study (part A.)). […]

[2] = test system: NKp30 transcriptional profile (PBMC of GIST patients); test: NKp30 transcriptional profile stability in GIST patients during the course of imatinib mesylate treatment; assay type: in vivo, human; settings: GIST therapy, spanning several years in some cases, four patients, FIG. 4
Excerpt: FIG. 4. Representation of NKp30 transcriptional profile intra-individual stability in four GIST patients during the course of treatment
NKP30 transcriptional profile. NKp30 isoform proportions are shown as the ratio of the relative quantities of each isoform and the total quantity of the six isoforms. For each patient, the numbers in brackets represent the time post-treatment in months.
as §3
For the “GIST patients and Healthy Volunteers” cohort, real time quantitative PCR amplifications were conducted using FastStart DNA Master SYBRGreen I Mix according to the manufacturer's instructions, with 0.3 μM primers, 2 mM MgCl2 and cDNAs, in a 20 μl final reaction volume. Thermocycling was performed using a LightCycler (Roche Molecular System) initiated by 10 min incubation at 95° C., followed by 38 cycles (95° C., 1 s; 65° C., 10 s; 72° C., 20 s). NKp30 mRNA expression level was normalized by dividing its relative mRNA amount with the corresponding GAPDH mRNA amount.

[3] = test system: wild-type NCR3 gene splicing (NKp30 isoforms); test: Modulation of wild-type NCR3 gene splicing by antisense oligonucleotides; settings: SEQ ID NO: 49-51 used in combination; no experiment described
[4] = test system: alternative splicing of NCR3 gene (NKp30 SHORT, INTER, LONG isoforms) in NK92 cells; test: Modulation of alternative splicing of NCR3 gene in NK92 cells (RT-PCR of NKp30 isoform proportions); assay type: cell-based, human; settings: 2 μM with IL-2 (50 UI/ml), 36 h at 37° C., FIG. 14B
Method: as §1, §2
(B) NK92 cells were seeded (5.10^5 NK/well) in 96 wells plates and incubated with 5-azacitidine (2 μM) (5AZA) and IL-2 (50 Ul/ml) for 36 h at 37° C.
as §3, §4
NK92 cells were seeded (5.10^5 NK/well) in 96 wells plates and incubated with 5-azacitidine (2 μM) and IL-2 (50 Ul/ml) for 36 h at 37° C.
as §5

In the case of `CC(/C=C/C(=O)NO)=C\[C@@H](C)C(=O)c1ccc(N(C)C)cc1` [trichostatin A], the “Proportions of NKp30 INTER, SHORT and LONG isoforms” value [1] is reported as “significant over-representation of INTER isoforms associated with an under-representation of SHORT and LONG isoforms”.

With `Cc1ccc(NC(=O)c2ccc(CN3CCN(C)CC3)cc2)cc1Nc1nccc(-c2cccnc2)n1` [imatinib mesylate] the “Modulation of the pattern of NKp30 expression overtime” value [2] was “did not appear to modulate the pattern of NKp30 expression overtime”.

“antisense oligonucleotides corresponding to SEQ ID NO: 49-51: three antisense oligonucleotides used in combination: target polyadenylation signal 1, polyadenylation site 1, and INTER blocking (antisense 1 GGGGCAGATTTATTGGGGTC; antisense 2 CTCATGAGGAGTTAGTGGT; antisense 3 GTGACAGTGGCCTGGTCAGA; listed as DNA, chemistry not given here)” was tested, and the “Representation of NKp30 INTER, SHORT and LONG isoforms compared to reference or mean values” [3] was “significant (relative) under-representation of NKp30 INTER isoforms associated with a relative over-representation of NKp30 SHORT and LONG isoforms”.

In the case of `Nc1ncn([C@@H]2O[C@H](CO)[C@@H](O)[C@H]2O)c(=O)n1` [5-azacitidine], the “Proportions of NKp30 INTER, SHORT and LONG isoforms” value [4] is reported as “significant over-representation of INTER isoforms associated with an under-representation of SHORT and LONG isoforms”.
